According to BindingDB's records for doi:10.1016/j.bmcl.2007.12.050 (Neurogen, 2008):

Test: Antagonist activity at CRF1 receptor expressed in mouse AtT20 cells assessed as inhibition of sauvagine-stimulated cAMP accumulation

Ki: 12 nM
SMILES: CCCN(CCC)c1c(C)nc(-c2c(C)cc(C)cc2OC)c2ccccc12 [1-(2-methoxy-4,6-dimethylphenyl)-3-methyl-N,N-dipropylisoquinolin-4-amine]
